Earlier results on one compound are cited in PubChem BioAssay AID1259409 (Chemical Carcinogenesis Research Information System (CCRIS), 2018).

The data set relates to rodent chemically induced tumor inhibition, incidence and multiplicity. Kind of data set: CCRIS tumor inhibitor studies. The settings on record: Dose [Inhibitor]: 0, Route [Inhibitor]: ORAL, Promoter: NONE USED.

Turning to `CN1C(C(=O)Nc2ccccn2)=C(O)c2ccccc2S1(=O)=O`, the “tumour outcome (control, treated, inhibition, significance)” value is 10/10 (100%), 1/10 (10%), 90%, p=0.00006 (Carcinogen: 2-ACETYLAMINOFLUORENE, 53-96-3, 130 PPM IN DIET FOR 18 WK BEGINNING 1 WK PRIOR TO CARCINOGEN TREATMENT (STUDY DURATION: 36 WK), Species: RAT, Strain/Sex: ACI/N/MALE, Target Tissue: Type of Lesion: LIVER: TUMOR, Dose [Carcinogen]: 200 PPM IN DIET FOR 16 WK); 7/25 (28%), 2/24 (8%), 71%, not significant (Carcinogen: 4-(METHYLNITROSAMINO)-1-(3-PYRIDYL-1-BUTANONE, 64091-91-4, 25 MG/KG IN DIET FOR 25 WK BEGINNING 2 WK PRIOR TO CARCINOGEN TREATMENT (STUDY DURATION: 25 WK), Species: MOUSE, Strain/Sex: STRAIN-A/FEMALE, Target Tissue: Type of Lesion: FORESTOMACH: TUMOR, Dose [Carcinogen]: 9.1 MG IN DRINKING WATER FOR 7 WK); 17/20 (85%), 19/21 (90%), -6%, not significant (Carcinogen: 7,12-DIMETHYLBENZ[A]ANTHRACENE, 57-97-6, 0.01% IN HIGH-FAT (20% SOYBEAN OIL) DIET FOR 20 WK BEGINNING 1 WK POST CARCINOGEN DOSE (STUDY DURATION: 21 WK), Species: RAT, Strain/Sex: SPRAGUE-DAWLEY/FEMALE, Target Tissue: Type of Lesion: MAMMARY GLAND: ADENOCARCINOMA, Dose [Carcinogen]: 5 MG ONCE); 10/18 (56%), 9/20 (45%), 20%, not significant (Carcinogen: 7,12-DIMETHYLBENZ[A]ANTHRACENE, 57-97-6, 0.01% IN LOW-FAT (0.5% SOYBEAN OIL) DIET FOR 20 WK BEGINNING 1 WK POST CARCINOGEN DOSE (STUDY DURATION: 21 WK), Species: RAT, Strain/Sex: SPRAGUE-DAWLEY/FEMALE, Target Tissue: Type of Lesion: MAMMARY GLAND: ADENOCARCINOMA, Dose [Carcinogen]: 5 MG ONCE); 17/30 (57%), 10/30 (33%), 41%, not calculated (Carcinogen: AZOXYMETHANE, 25843-45-2, 25 PPM IN DIET BEGINNING 1 WK POST CARCINOGEN DOSE FOR DURATION OF STUDY (STUDY DURATION: 56 WK), Species: RAT, Strain/Sex: F344/MALE, Target Tissue: Type of Lesion: COLON: ADENOCARCINOMA, Dose [Carcinogen]: 29.6 MG/KG IN NORMAL SALINE ONCE); 11/30 (37%), 16/30 (53%), -43%, not calculated (Carcinogen: AZOXYMETHANE, 25843-45-2, 25 PPM IN DIET BEGINNING 1 WK POST CARCINOGEN DOSE FOR DURATION OF STUDY (STUDY DURATION: 56 WK), Species: RAT, Strain/Sex: F344/MALE, Target Tissue: Type of Lesion: COLON: ADENOMA, Dose [Carcinogen]: 29.6 MG/KG IN NORMAL SALINE ONCE). Moreover, the “tumour outcome (control, treated, inhibition, significance)” value is given as 10/30 (33%), 7/30 (23%), 30%, not calculated (Carcinogen: AZOXYMETHANE, 25843-45-2, 25 PPM IN DIET BEGINNING 1 WK POST CARCINOGEN DOSE FOR DURATION OF STUDY (STUDY DURATION: 56 WK), Species: RAT, Strain/Sex: F344/MALE, Target Tissue: Type of Lesion: SMALL INTESTINE: ADENOCARCINOMA, Dose [Carcinogen]: 29.6 MG/KG IN NORMAL SALINE ONCE); 1/30 (3%), 0/30 (0%), 100%, not significant (Carcinogen: AZOXYMETHANE, 25843-45-2, 25 PPM IN DIET BEGINNING 1 WK POST CARCINOGEN DOSE FOR DURATION OF STUDY (STUDY DURATION: 56 WK), Species: RAT, Strain/Sex: F344/MALE, Target Tissue: Type of Lesion: SMALL INTESTINE: ADENOMA, Dose [Carcinogen]: 29.6 MG/KG IN NORMAL SALINE ONCE); 17/30 (57%), 6/30 (20%), 65%, p<0.05 (Carcinogen: AZOXYMETHANE, 25843-45-2, 75 PPM IN DIET BEGINNING 1 WK POST CARCINOGEN DOSE FOR DURATION OF STUDY (STUDY DURATION: 56 WK), Species: RAT, Strain/Sex: F344/MALE, Target Tissue: Type of Lesion: COLON: ADENOCARCINOMA, Dose [Carcinogen]: 29.6 MG/KG IN NORMAL SALINE ONCE); 11/30 (37%), 14/30 (47%), -27%, not calculated (Carcinogen: AZOXYMETHANE, 25843-45-2, 75 PPM IN DIET BEGINNING 1 WK POST CARCINOGEN DOSE FOR DURATION OF STUDY (STUDY DURATION: 56 WK), Species: RAT, Strain/Sex: F344/MALE, Target Tissue: Type of Lesion: COLON: ADENOMA, Dose [Carcinogen]: 29.6 MG/KG IN NORMAL SALINE ONCE); 10/30 (33%), 9/30 (30%), 10%, not calculated (Carcinogen: AZOXYMETHANE, 25843-45-2, 75 PPM IN DIET BEGINNING 1 WK POST CARCINOGEN DOSE FOR DURATION OF STUDY (STUDY DURATION: 56 WK), Species: RAT, Strain/Sex: F344/MALE, Target Tissue: Type of Lesion: SMALL INTESTINE: ADENOCARCINOMA, Dose [Carcinogen]: 29.6 MG/KG IN NORMAL SALINE ONCE); 1/30 (3%), 2/30 (7%), -133%, not calculated (Carcinogen: AZOXYMETHANE, 25843-45-2, 75 PPM IN DIET BEGINNING 1 WK POST CARCINOGEN DOSE FOR DURATION OF STUDY (STUDY DURATION: 56 WK), Species: RAT, Strain/Sex: F344/MALE, Target Tissue: Type of Lesion: SMALL INTESTINE: ADENOMA, Dose [Carcinogen]: 29.6 MG/KG IN NORMAL SALINE ONCE). For the same compound, the “tumour outcome (control, treated, inhibition, significance)” value reads like this: (Carcinogen: AZOXYMETHANE, 25843-45-2, 75 PPM IN THE DIET FOR 28 WK BEGINNING 2 WK PRIOR TO CARCINOGEN TREATMENT (STUDY DURATION: 30 WK), Species: RAT, Strain/Sex: F344/MALE, Target Tissue: Type of Lesion: COLON: TUMOR, Dose [Carcinogen]: 15 MG/KG BW 1/WK FOR 2 WK) 20/43 (47%), 19/56 (34%), 28%, p<0.05; (Carcinogen: AZOXYMETHANE, 25843-45-2, 150 PPM IN DIET BEGINNING 1 WK POST CARCINOGEN DOSE FOR DURATION OF STUDY (STUDY DURATION: 56 WK), Species: RAT, Strain/Sex: F344/MALE, Target Tissue: Type of Lesion: COLON: ADENOCARCINOMA, Dose [Carcinogen]: 29.6 MG/KG IN NORMAL SALINE ONCE) 17/30 (57%), 7/30 (23%), 59%, p<0.05.
